Reference: US20160319277A1, “METHODS OF IMPROVED PROTEIN PRODUCTION USING MIRNAs AND SIRNAs” (THE JOHNS HOPKINS UNIVERSITY, priority 2015, published 2016)
Like-named read-outs stand apart in the source and are kept apart here.

Tested on: HEK-CMV-Luc2-Hygro cells
Test: High-throughput genome-wide siRNA screen and validation screen for luciferase expression
Format: cell-based, human
Conditions: for per_cell / VIA: Table 3; for per_cell: per cell luciferase yield relative to negative control; for VIA: viable cell density as % of negative control; for Luciferase activity (%) / Per cell luciferase yield (%) / Viable cell number (%): Table 6, polyamine pathway gene siRNAs
Experimental: The Silencer Select™ Human genome siRNA library (Ambion), which targets 21,585 human genes with 3 siRNAs per gene, was used for screening. Each siRNA is arrayed in an individual well (Corning 3570, 384 well, white, solid bottom plates). The transfection was done in duplicates: 0.8 pmol of each siRNA was spotted to a well of a 384-well plate (Corning) and 20 μL of serum-free DMEM containing 0.07 μL of Lipofectamine™ RNAiMax (Life Technologies) was then added to each well. This lipid-siRNA mixture was incubated at ambient temperature for 30 min prior to addition of 4000 cells in 20 μL of DMEM containing 20% FBS (Gibco). After incubating the transfected cells at 37° C. in 5% CO2 for 72 hours, 20 μL of ONE-Glo™ Reagent (Promega) was added to one set of replicates for ‘overall luciferase yield’ quantification and 20 μL of CellTiter-Glo™ Reagent (Promega) was added to the second set of replicates for ‘viable cell density’ measurement. All plates were incubated at room temperature for 20 minutes to stabilize the luminescent signal and the signal was then measured with PerkinElmer Envision 2104 Multilabel™ plate reader.
The 56 genes which got targeted by at least two independent siRNAs (out of three) resulting in enhanced luciferase production with MAD-based z-score>3 from the primary screen were subjected to validation screen using 3 additional Silencer™ siRNAs (Ambion) with different sequences from those used in the primary screen. […] The transfection and assay processes were-the same as the primary genome-wide screen. Data visualization was performed in R computational environment (available on the World Wide Web at R-project.org/) by using ‘hexbin’ and ‘ggplot2’ packages.
The screen generated end-point data for ‘overall luciferase yield’ and ‘viable cell density’ in each well. For each plate, the median value of the negative control wells was set as 100% and was used to normalize corresponding sample wells. The ‘overall luciferase yield’ and ‘viable cell density’ were exported as % of negative control and the median absolute deviation (MAD)-based z-score was calculated for each sample.

[1] = Table 4, primary screen, 72 h, negative control = 100%

Row | Substance | Viable cell density (%) [1] [%] | per cell luciferase yield (%) [1] [%] | also measured
1 | 71 (GAUUACUUCUUGACUAUCATT; chemistry not given here; listed as Homo sapiens) [compound 71] | – | – | per_cell (primary screen, 72 h): 150.8; VIA (primary screen, 72 h): 123.2
2 | 128 (CAGCAAACCUUUGACCAGATT; chemistry not given here; listed as Homo sapiens) [compound 128] | 55.405 | 277.511 | –
3 | 181 (GCUAAGUCUUUUCCACAGUTT; chemistry not given here; listed as Homo sapiens) [compound 181] | 94.537 | 155.385 | –
4 | 92 (CCAGUUCGACCUGAACAAATT; chemistry not given here; listed as Homo sapiens) [compound 92] | – | – | per_cell (primary screen, 72 h): 176; VIA (primary screen, 72 h): 85.75
5 | 194 (CAUCAAGCCCUGUAAGUCUTT; chemistry not given here; listed as Homo sapiens) [compound 194] | 89.583 | 163.431 | –
6 | 197 (GACUCAGAGUAACAACGCATT; chemistry not given here; listed as Homo sapiens) [compound 197] | 95.471 | 162.372 | –
7 | 130 (GGAGGAAUCUCGAAUGCGATT; chemistry not given here; listed as Homo sapiens) [compound 130] | 96.002 | 173.284 | –
8 | 99 (CCCGGAUACUUCUGAAGAATT; chemistry not given here; listed as Homo sapiens) [compound 99] | 75.879 | 227.884 | –
9 | 72 (GCUCCUCUGUUACCACAGATT; chemistry not given here; listed as Homo sapiens) [compound 72] | – | – | per_cell (primary screen, 72 h): 179.3; VIA (primary screen, 72 h): 91.53
10 | 69 (CCCUCCUACUAUUACCCGUTT; chemistry not given here; listed as Homo sapiens) [compound 69] | – | – | per_cell (primary screen, 72 h): 163; VIA (primary screen, 72 h): 96.87
11 | 52 (GGAAGAACGUCUUGCACAATT; chemistry not given here; listed as Homo sapiens) [compound 52] | – | – | per_cell (primary screen, 72 h): 183.1; VIA (primary screen, 72 h): 85.47
12 | 47 (GUACCUGCGGGAUUACUCATT; chemistry not given here; listed as Homo sapiens) [compound 47] | – | – | per_cell (primary screen, 72 h): 160.7; VIA (primary screen, 72 h): 90.99
13 | 94 (AGAGGCUACUUUGAAAACATT; chemistry not given here; listed as Homo sapiens) [compound 94] | 66.938 | 227.583 | –
14 | 196 (ACAGGUCUUUAUCAAAGCATT; chemistry not given here; listed as Homo sapiens) [compound 196] | 100.201 | 153.426 | –
15 | 184 (GCCUGAAUCUUGUCCCAAATT; chemistry not given here; listed as Homo sapiens) [compound 184] | 82.390 | 228.483 | –
16 | 167 (CCUGGACAGUUUGAAGCAATT; chemistry not given here; listed as Homo sapiens) [compound 167] | 88.009 | 174.946 | –
17 | 134 (GAUCGUUUGAGAGAACAAATT; chemistry not given here; listed as Homo sapiens) [compound 134] | 77.107 | 210.336 | –
18 | 54 (GCAUCUGUCCGAUCGCUCUTT; chemistry not given here; listed as Homo sapiens) [compound 54] | – | – | per_cell (primary screen, 72 h): 143.9; VIA (primary screen, 72 h): 105.5
19 | 148 (CAGCCUCACCAAGCACAAATT; chemistry not given here; listed as Homo sapiens) [compound 148] | 85.866 | 167.413 | –
20 | 103 (GACAUUGGAUCAUACUAAATT; chemistry not given here; listed as Homo sapiens) [compound 103] | 88.908 | 185.522 | –
21 | 56 (CAACGGGACUAUUAUGAUATT; chemistry not given here; listed as Homo sapiens) [compound 56] | – | – | per_cell (primary screen, 72 h): 163.5; VIA (primary screen, 72 h): 97.39

Row | Substance | Viable cell density (%) [1] [%] | per cell luciferase yield (%) [1] [%] | also measured
22 | 112 (GUUUCAUCUGGGUUCGCUATT; chemistry not given here; listed as Homo sapiens) [compound 112] | 62.659 | 233.649 | –
23 | 168 (GCUUCCUCUUGGACCUCAATT; chemistry not given here; listed as Homo sapiens) [compound 168] | 78.156 | 185.175 | –
24 | 93 (CAGCCUCACCAAGCACAAATT; chemistry not given here; listed as Homo sapiens) [compound 93] | – | – | per_cell (primary screen, 72 h): 167.4; VIA (primary screen, 72 h): 85.87
25 | 198 (GCCUAGGAGUUAUCCUCUATT; chemistry not given here; listed as Homo sapiens) [compound 198] | 112.248 | 137.554 | –
26 | 102 (AGAUCUUUGUCAAGGUGUATT; chemistry not given here; listed as Homo sapiens) [compound 102] | 96.256 | 153.438 | –
27 | 88 (GAGCAGAGAUCAUAACCAATT; chemistry not given here; listed as Homo sapiens) [compound 88] | – | – | per_cell (primary screen, 72 h): 141.1; VIA (primary screen, 72 h): 108.2
28 | 210 (CAAUGGAACAAUCAAAGUUTT; chemistry not given here; listed as Homo sapiens) [compound 210] | 89.607 | 180.764 | –
29 | 144 (GGAUCACGCAGCUCAAGAUTT; chemistry not given here; listed as Homo sapiens) [compound 144] | 91.538 | 161.634 | –
30 | 227 (CGAUGAACAUGUUAGACAUTT; chemistry not given here; listed as Homo sapiens) [compound 227] | – | – | Luciferase activity (%): 30.4%; Per cell luciferase yield (%): 42.2%; Viable cell number (%): 72.1%
31 | 117 (GGCUGUACAUAGUCCUUUUTT; chemistry not given here; listed as Homo sapiens) [compound 117] | – | 238.463 | Viable cell density (%): 66.394%
32 | 166 (CCAAGUCCAAUGCACCUGUTT; chemistry not given here; listed as Homo sapiens) [compound 166] | 76.798 | 186.195 | –
33 | 185 (GAAGAAGACUCUGUACUCATT; chemistry not given here; listed as Homo sapiens) [compound 185] | 66.511 | 215.853 | –
34 | 113 (GCAUCAGCUCACAACAAAATT; chemistry not given here; listed as Homo sapiens) [compound 113] | 35.915 | 409.361 | –
35 | 142 (AAGUCAACAUAGCCCGAAATT; chemistry not given here; listed as Homo sapiens) [compound 142] | 111.487 | 145.707 | –
36 | 213 (GGCUGAAUGUAACAGAGGATT; chemistry not given here; listed as Homo sapiens) [compound 213] | – | – | Luciferase activity (%): 127.6%; Per cell luciferase yield (%): 134.5%; Viable cell number (%): 94.9%
37 | 107 (CCAUAUAUCCGAAUGACCATT; chemistry not given here; listed as Homo sapiens) [compound 107] | 63.879 | 256.443 | –
38 | 207 (CGCUCACCAACAGCAGAAATT; chemistry not given here; listed as Homo sapiens) [compound 207] | 102.629 | 146.756 | –
39 | 124 (GAAUAACCGUUGGUUUAAUTT; chemistry not given here; listed as Homo sapiens) [compound 124] | 65.083 | 292.710 | –
40 | 214 (CCGUAGACUCGCUCAUCUCTT; chemistry not given here; listed as Homo sapiens) [compound 214] | – | – | Luciferase activity (%): 174.4%; Per cell luciferase yield (%): 204.2%; Viable cell number (%): 85.4%
41 | 118 (UGUGGACUGAGGUACCCAATT; chemistry not given here; listed as Homo sapiens) [compound 118] | 58.901 | 247.842 | –
